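Briefly, cells in 96-well plates were exposed to five compound concentrations for 48 h, and endpoints were estimated by linear interpolation. TGI: concentration producing complete growth inhibition.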

We go through 12 compounds from PubChem BioAssay (NCI).

Among the test systems are HT29 colon; SF-295 CNS; TK-10 renal; ACHN renal; RPMI-8226 leukemia; HOP-62 NSCLC; MOLT-4 leukemia; CCRF-CEM leukemia; HL-60(TB) leukemia; MALME-3M melanoma; RXF 393 renal; U251 CNS; K-562 leukemia; HOP-92 NSCLC.
Holding throughout (assay): inhibition of tumour cell growth, NCI panel, 48 h

For `CN1C2CCC1CC(=CCOC(c1ccc(F)cc1)c1ccc(F)cc1)C2`, the TGI came to 19.9 µM with HT29 colon; 30.9 µM with SF-295 CNS; 28.5 µM with TK-10 renal; 31.8 µM in the assay on ACHN renal; 38 µM with RPMI-8226 leukemia; 32.2 µM in the assay with HOP-62 NSCLC. Also, the TGI in the assay with MOLT-4 leukemia was 42.3 µM; with CCRF-CEM leukemia, more than 100 µM; in the assay with HL-60(TB) leukemia it was 43.5 µM; in the assay with MALME-3M melanoma, 27.2 µM; in the assay with RXF 393 renal it was 28.2 µM; with U251 CNS, 33.2 µM. The TGI in the assay on K-562 leukemia amounted to 28 µM.
Regarding `COc1ccc(S(=O)(=O)c2nnc(S(=O)(=O)Cc3ccccc3)s2)cc1`, the TGI was 43.8 µM in the assay on HT29 colon; 90.1 µM with SF-295 CNS; 39.6 µM with TK-10 renal; 30.6 µM with ACHN renal; more than 100 µM in the assay on RPMI-8226 leukemia; 75.5 µM with HOP-62 NSCLC. In addition, the TGI in the assay with RXF 393 renal was 31.2 µM; in the assay with U251 CNS it was 52.3 µM; in the assay with K-562 leukemia it was more than 100 µM.
On to `CCOC(=O)C12OC(CCC1=O)C(C(=O)OC)=C2C(=O)OC` (stereo not given), for which the TGI with HT29 colon, in the assay on SF-295 CNS, in the assay with TK-10 renal, in the assay with ACHN renal, in the assay on RPMI-8226 leukemia and in the assay with HOP-62 NSCLC was more than 10 µM in each case. Also, the TGI with MOLT-4 leukemia, in the assay on CCRF-CEM leukemia, in the assay on HL-60(TB) leukemia, with MALME-3M melanoma, in the assay on RXF 393 renal and with U251 CNS was more than 10 µM throughout. In the assay with K-562 leukemia, this compound returned a TGI of more than 10 µM.
Regarding `Cn1ccc(C(=O)NCCN(CCNC(=O)c2ccn(C)c(=O)c2O)CCNC(=O)c2cccc(=O)n2O)c(O)c1=O`, the TGI in the assay on HT29 colon, in the assay with HOP-92 NSCLC, in the assay on SF-295 CNS, in the assay with ACHN renal, in the assay with RPMI-8226 leukemia and with HOP-62 NSCLC was more than 100 µM in each case. Besides, the TGI in the assay on CCRF-CEM leukemia, in the assay on HL-60(TB) leukemia, in the assay on MALME-3M melanoma, in the assay on RXF 393 renal, in the assay on U251 CNS and in the assay on K-562 leukemia was more than 100 µM in each case.
In the case of `OC1C#CCSCC#C/C=C\1` (stereo not given), the TGI in the assay with HT29 colon, in the assay with HOP-92 NSCLC, in the assay on SF-295 CNS, with TK-10 renal, in the assay with ACHN renal and in the assay with HOP-62 NSCLC was more than 100 µM throughout. The TGI with CCRF-CEM leukemia is 98.4 µM; with HL-60(TB) leukemia, 71.8 µM; in the assay with MALME-3M melanoma, more than 100 µM; in the assay with RXF 393 renal, 68.1 µM; in the assay with U251 CNS, more than 100 µM; in the assay on K-562 leukemia, 75.9 µM.
Regarding `COc1ccc(P2(=S)OC(C)(C)C(C)(C)O2)cc1`, the TGI with HT29 colon, in the assay with HOP-92 NSCLC, with SF-295 CNS, in the assay on TK-10 renal, with ACHN renal and in the assay on HOP-62 NSCLC was more than 100 µM throughout. In addition, the TGI with MOLT-4 leukemia, in the assay on CCRF-CEM leukemia, with HL-60(TB) leukemia, in the assay with MALME-3M melanoma, with U251 CNS and with K-562 leukemia was more than 100 µM each time.
On to `Nc1nc(SC/C=C/c2ccccc2)c2[nH]cnc2n1`, for which the TGI in the assay with HT29 colon, in the assay with SF-295 CNS, with TK-10 renal, in the assay with ACHN renal, with RPMI-8226 leukemia and in the assay with HOP-62 NSCLC was more than 100 µM throughout. Besides, the TGI in the assay on MOLT-4 leukemia, in the assay with CCRF-CEM leukemia, in the assay with HL-60(TB) leukemia, with MALME-3M melanoma, with RXF 393 renal and in the assay with U251 CNS was more than 100 µM each time. The same compound registered a TGI in the assay with K-562 leukemia of more than 100 µM.
For `COC1(OC)C(N(C)C)=C(Cl)C(=O)/C1=C/C=O`, the TGI in the assay with HT29 colon, in the assay on HOP-92 NSCLC, in the assay on SF-295 CNS, in the assay with TK-10 renal, with ACHN renal and in the assay with RPMI-8226 leukemia was more than 100 µM throughout. The TGI in the assay with HOP-62 NSCLC was more than 100 µM; in the assay on MOLT-4 leukemia it was more than 100 µM; in the assay on CCRF-CEM leukemia it was 98.2 µM; in the assay with HL-60(TB) leukemia, more than 100 µM; in the assay on MALME-3M melanoma, more than 100 µM; in the assay on U251 CNS, more than 100 µM. The same compound displayed a TGI in the assay on K-562 leukemia of more than 100 µM.
For `COC(=O)c1cc2ccc(N)nc2[nH]c1=O`, the TGI in the assay on HOP-92 NSCLC, in the assay with SF-295 CNS, in the assay with TK-10 renal, with ACHN renal, with RPMI-8226 leukemia and in the assay on HOP-62 NSCLC was more than 100 µM throughout. Besides, the TGI in the assay with MALME-3M melanoma, in the assay on RXF 393 renal and in the assay on U251 CNS was more than 100 µM in each case.
As for `COC(=O)C(Cc1c[nH]c2ccccc12)NP(=O)(O)OCC1OC(n2cc(I)c(=O)[nH]c2=O)CC1O` (stereo not given), the TGI in the assay with HT29 colon, in the assay on HOP-92 NSCLC, in the assay on SF-295 CNS, in the assay on TK-10 renal, in the assay on ACHN renal and in the assay with RPMI-8226 leukemia was more than 100 µM each time. Besides, the TGI in the assay with HOP-62 NSCLC, with MOLT-4 leukemia, in the assay with CCRF-CEM leukemia, in the assay on HL-60(TB) leukemia, in the assay on MALME-3M melanoma and in the assay with U251 CNS was more than 100 µM throughout. This compound showed a TGI in the assay on K-562 leukemia of more than 100 µM.
For the compound `CC(=O)c1c(C)n([O-])c2cc(Cl)c(Cl)cc2[n+]1=O`, the TGI was 90.9 µM in the assay with HT29 colon; more than 100 µM with SF-295 CNS; 71.3 µM in the assay on TK-10 renal; 67.7 µM in the assay with ACHN renal; 25.4 µM with RPMI-8226 leukemia; more than 100 µM with HOP-62 NSCLC. In addition, the TGI with MOLT-4 leukemia is more than 100 µM; with CCRF-CEM leukemia, 61.5 µM; in the assay with HL-60(TB) leukemia, 39.6 µM; in the assay on MALME-3M melanoma it was 26.4 µM; in the assay on RXF 393 renal, more than 100 µM; with U251 CNS, more than 100 µM. In the assay with K-562 leukemia, the TGI amounted to 95.4 µM.
Take `COc1ccc(/C=C2\N=C(SC)N(CN3CCOCC3)C2=O)cc1`: the TGI with HT29 colon was more than 100 µM; with HOP-92 NSCLC it was 67.4 µM; with SF-295 CNS, more than 100 µM; with TK-10 renal, more than 100 µM; in the assay with ACHN renal, more than 100 µM; in the assay on RPMI-8226 leukemia it was more than 100 µM. Besides, the TGI with HOP-62 NSCLC, with MOLT-4 leukemia, with CCRF-CEM leukemia, in the assay on HL-60(TB) leukemia, with MALME-3M melanoma and with U251 CNS was more than 100 µM in each case. This compound also gave a TGI in the assay on K-562 leukemia of more than 100 µM.
